Measured values: patent US11110082B2, “Tyrosine kinase inhibitors” (Rigel Pharmaceuticals, Inc., priority 2016, dated 2021)

molecular target: T1, MerTK (Homo sapiens, UniProt Q12866); assay: PAKT HTRF-HUVEC assay (pAkt Ser473 HTRF after anti-human MerTK-XL stimulation); type: cell-based; conditions: HUVEC cells, 1 hour compound, stimulated with anti-human MerTK-XL 1 ug/mL for 10 minutes, read-out: inhibition of MerTK
T1 construct: Seed HUVECs (10K cells/well) in EBM-2 complete media; host or cells: HUVEC (primary human umbilical vein endothelial cells)
T1 sequence (Q12866 21-999): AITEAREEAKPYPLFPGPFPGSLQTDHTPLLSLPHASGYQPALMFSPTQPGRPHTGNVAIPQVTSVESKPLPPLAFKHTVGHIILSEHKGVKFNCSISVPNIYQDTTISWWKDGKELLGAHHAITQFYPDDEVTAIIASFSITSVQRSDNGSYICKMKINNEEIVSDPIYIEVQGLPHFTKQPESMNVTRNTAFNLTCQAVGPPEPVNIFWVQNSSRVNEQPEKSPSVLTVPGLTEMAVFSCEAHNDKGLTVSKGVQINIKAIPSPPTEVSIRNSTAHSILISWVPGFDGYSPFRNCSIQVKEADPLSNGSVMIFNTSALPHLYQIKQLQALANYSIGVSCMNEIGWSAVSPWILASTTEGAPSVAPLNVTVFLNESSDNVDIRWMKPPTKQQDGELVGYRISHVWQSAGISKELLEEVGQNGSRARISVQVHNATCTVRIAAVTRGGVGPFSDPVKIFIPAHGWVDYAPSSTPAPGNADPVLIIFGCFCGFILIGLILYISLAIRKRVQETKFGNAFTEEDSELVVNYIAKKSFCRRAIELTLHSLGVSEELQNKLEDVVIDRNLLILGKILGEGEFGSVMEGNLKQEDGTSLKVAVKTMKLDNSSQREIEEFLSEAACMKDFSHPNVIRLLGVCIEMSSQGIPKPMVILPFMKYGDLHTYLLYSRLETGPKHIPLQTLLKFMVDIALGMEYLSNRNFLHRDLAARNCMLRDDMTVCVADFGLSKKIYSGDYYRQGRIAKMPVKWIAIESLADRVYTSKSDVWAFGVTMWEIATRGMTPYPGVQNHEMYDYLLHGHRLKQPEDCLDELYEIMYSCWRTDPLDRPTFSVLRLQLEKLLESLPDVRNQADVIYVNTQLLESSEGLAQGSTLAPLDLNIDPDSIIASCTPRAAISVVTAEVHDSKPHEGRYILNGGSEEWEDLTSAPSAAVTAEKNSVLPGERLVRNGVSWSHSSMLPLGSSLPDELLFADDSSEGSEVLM
Outline: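 HUVECs starved 3-4 h in basal medium, preincubated with compound 1 h at 37° C, then stimulated 10 min with cross-linked anti-human MerTK antibody (final 1 ug/mL). Lysates read for pAkt (Ser473) by HTRF; EC50 from curve fitting.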

Row | Structure (SMILES) | EC50
1 | CCCCNc1ncc2c3ccc(CN4CCN(C)CC4)cc3c(=O)n([C@H]3CC[C@H](C(=O)O)CC3)c2n1 [Compound 132, trans-4-(3-(Butylamino)-8-((4-methylpiperazin-1-yl)methyl)-6-oxopyrimido[4,5-c]isoquinolin-5(6H)-yl)cyclohexane-1-carboxylic Acid] | 1550 nM
2 | CN1CCN(Cc2ccc3c(c2)c(=O)n(C2CCOCC2)c2nc(NCC4CC4)ncc32)CC1 [Compound 133] | 1670 nM
3 | CN1CCN(Cc2ccc3c(c2)c(=O)n([C@H]2CC[C@H](C(N)=O)CC2)c2nc(NCC4CC4)ncc32)CC1 [Compound 134, trans-4-(3-((Cyclopropylmethyl)amino)-8-((4-methylpiperazin-1-yl)methyl)-6-oxopyrimido[4,5-c]isoquinolin-5(6H)-yl)cyclohexane-1-carboxamide] | 347 nM
4 | CN1CCN(Cc2ccc3c(c2)c(=O)n([C@H]2CC[C@H](C(=O)O)CC2)c2nc(NCC4CC4)ncc32)CC1 [Compound 135, trans-4-(3-((Cyclopropylmethyl)amino)-8-((4-methylpiperazin-1-yl)methyl)-6-oxopyrimido[4,5-c]isoquinolin-5(6H)-yl)cyclohexane-1-carboxylic Acid] | 4040 nM
5 | CN1CCC(n2c(=O)c3cc(CN4CCN(C)CC4)ccc3c3cnc(NCC4CC4)nc32)CC1 [Compound 136] | 320 nM
6 | CN1CCN(Cc2ccc3c(c2)c(=O)n([C@H]2CC[C@H](O)CC2)c2nc(NC4CCC4)ncc32)CC1 [Compound 137, trans-3-(cyclobutylamino)-5-(4-hydroxycyclohexyl)-8-((4-methylpiperazin-1-yl)methyl)pyrimido[4,5-c]isoquinolin-6(5H)-one] | 19.6 nM
7 | CCCCNc1ncc2c3ccc(CN4CCN(C)CC4)cc3c(=O)n([C@H]3CC[C@H](C(=O)NC)CC3)c2n1 [Compound 138, trans-4-(3-(Butylamino)-8-((4-methylpiperazin-1-yl)methyl)-6-oxopyrimido[4,5-c]isoquinolin-5(6H)-yl)-N-methylcyclohexane-1-carboxamide] | 68.8 nM
8 | CCCCNc1ncc2c3ccc(CN4CCN(C)CC4)cc3c(=O)n([C@H]3CC[C@H](C(=O)NCC(F)(F)F)CC3)c2n1 [Compound 139, trans-4-(3-(Butylamino)-8-((4-methylpiperazin-1-yl)methyl)-6-oxopyrimido[4,5-c]isoquinolin-5(6H)-yl)-N-(2,2,2-trifluoroethyl)cyclohexane-1-carboxamide] | 134 nM
9 | CCCCNc1ncc2c3ccc(CN4CCN(C)CC4)cc3c(=O)n([C@H]3CC[C@H](C(=O)NC4COC4)CC3)c2n1 [Compound 140, trans-4-(3-(Butylamino)-8-((4-methylpiperazin-1-yl)methyl)-6-oxopyrimido[4,5-c]isoquinolin-5(6H)-yl)-N-(oxetan-3-yl)cyclohexane-1-carboxamide] | 147 nM
10 | CCCCNc1ncc2c3ccc(CN4CCN(C)CC4)cc3c(=O)n([C@H]3CC[C@H](C(=O)NCC4CC4)CC3)c2n1 [Compound 141, trans-4-(3-(Butylamino)-8-((4-methylpiperazin-1-yl)methyl)-6-oxopyrimido[4,5-c]isoquinolin-5(6H)-yl)-N-(cyclopropylmethyl)cyclohexane-1-carboxamide] | 187 nM
11 | CCCCNc1ncc2c3ccc(CN4CCN(C)CC4)cc3c(=O)n([C@H]3CC[C@H](C(=O)N(C)C)CC3)c2n1 [Compound 142, trans-4-(3-(Butylamino)-8-((4-methylpiperazin-1-yl)methyl)-6-oxopyrimido[4,5-c]isoquinolin-5(6H)-yl)-N,N-dimethylcyclohexane-1-carboxamide] | 115 nM
12 | O=c1c2cc(CN3CCC(c4nnn[nH]4)CC3)ccc2c2cnc(NCC3CC3)nc2n1C1CCC(O)CC1 (stereo not shown) [Compound 143, 8-((4-(1H-tetrazol-5-yl)piperidin-1-yl)methyl)-3-((cyclopropylmethyl)amino)-5-((1s,4s)-4-hydroxycyclohexyl)pyrimido[4,5-c]isoquinolin-6(5H)-one] | 13500 nM
13 | CCOC1CCN(Cc2ccc3c(c2)c(=O)n(C2CCC(O)CC2)c2nc(NCC4CC4)ncc32)CC1 (stereo not shown) [Compound 144, 3-((cyclopropylmethyl)amino)-8-((4-ethoxypiperidin-1-yl)methyl)-5-((1s,4s)-4-hydroxycyclohexyl)pyrimido[4,5-c]isoquinolin-6(5H)-one] | 57.3 nM
14 | CC1(O)CCN(Cc2ccc3c(c2)c(=O)n(C2CCC(O)CC2)c2nc(NCC4CC4)ncc32)CC1 (stereo not shown) [Compound 145, 3-((cyclopropylmethyl)amino)-8-((4-hydroxy-4-methylpiperidin-1-yl)methyl)-5-((1s,4s)-4-hydroxycyclohexyl)pyrimido[4,5-c]isoquinolin-6(5H)-one] | 25.7 nM
15 | CN1CCN(Cc2ccc3c(c2)c(=O)n(C2CCC(C)(C)CC2)c2nc(NCC4CCC4)ncc32)CC1 [Compound 146] | 7.4 nM
16 | O=c1c2cc(CN3CCN(C4COC4)CC3)ccc2c2cnc(NCC3CC3)nc2n1[C@H]1CC[C@H](O)CC1 [Compound 147] | 46.7 nM
17 | CC1(O)CCC(n2c(=O)c3cc(CN4CCN(C5COC5)CC4)ccc3c3cnc(NCC4CC4)nc32)CC1 (stereo not shown) [Compound 148] | 16.8 nM
18 | O=c1c2cc(CN3CCC(N4CCCC4)CC3)ccc2c2cnc(NCC3CC3)nc2n1[C@H]1CC[C@H](O)CC1 [Compound 149] | 53.8 nM
19 | CC1(O)CCC(n2c(=O)c3cc(CN4CCC(N5CCCC5)CC4)ccc3c3cnc(NCC4CC4)nc32)CC1 (stereo not shown) [Compound 150] | 33.3 nM
20 | O=c1c2cc(CN3CCn4ncnc4C3)ccc2c2cnc(NCC3CC3)nc2n1[C@H]1CC[C@H](O)CC1 [Compound 151] | 64.6 nM

Row | Structure (SMILES) | EC50
21 | O=c1c2cc(CN3CCN(CC(F)(F)F)CC3)ccc2c2cnc(NCC3CC3)nc2n1[C@H]1CC[C@H](O)CC1 [Compound 152] | 50.7 nM
22 | O=c1c2cc(CN3CCN(CC(F)F)CC3)ccc2c2cnc(NCC3CC3)nc2n1[C@H]1CC[C@H](O)CC1 [Compound 153] | 51.3 nM
23 | CCCCNc1ncc2c3ccc(CN4CCNCC4)cc3c(=O)n([C@H]3CC[C@H](O)CC3)c2n1 [Compound 154] | 66 nM
24 | O=c1c2cc(CN3CCOCC3)ccc2c2cnc(NCC3CC3)nc2n1[C@H]1CC[C@H](O)CC1 [Compound 155] | 149 nM
25 | CC1(O)CCC(n2c(=O)c3cc(CN4CCOCC4)ccc3c3cnc(NCC4CC4)nc32)CC1 (stereo not shown) [Compound 156] | 116 nM
26 | O=c1c2cc(CN3CCN4CCC[C@H]4C3)ccc2c2cnc(NCC3CC3)nc2n1[C@H]1CC[C@H](O)CC1 [Compound 157] | 49.7 nM
27 | O=c1c2cc(N3CCC(N4CCCC4)CC3)ccc2c2cnc(NCC3CC3)nc2n1[C@H]1CC[C@H](O)CC1 [Compound 158] | 94.8 nM
28 | O=c1c2cc(CN3CCN4CCC[C@@H]4C3)ccc2c2cnc(NCC3CC3)nc2n1[C@H]1CC[C@H](O)CC1 [Compound 159] | 48.7 nM
29 | O=c1c2cc(CN3CCS(=O)(=O)CC3)ccc2c2cnc(NCC3CC3)nc2n1[C@H]1CC[C@H](O)CC1 [Compound 160] | 221 nM
30 | CCOC(=O)C1CCN(Cc2ccc3c(c2)c(=O)n(C2CCC(O)CC2)c2nc(NCC4CC4)ncc32)CC1 (stereo not shown) [Compound 161] | 25.9 nM
31 | O=c1c2cc(CN3CC[N+]4([O-])CCC3CC4)ccc2c2cnc(NCC3CC3)nc2n1[C@H]1CC[C@H](O)CC1 [Compound 162] | 11900 nM
32 | O=c1c2cc(N3CCN4CCC3CC4)ccc2c2cnc(NCC3CC3)nc2n1C1CCC(O)CC1 (stereo not shown) [Compound 163] | 113 nM
33 | O=c1c2cc(N3CCn4ncnc4C3)ccc2c2cnc(NCC3CC3)nc2n1[C@H]1CC[C@H](O)CC1 [Compound 164] | 296 nM
34 | O=c1c2cc(CN3CC[S+]([O-])CC3)ccc2c2cnc(NCC3CC3)nc2n1[C@H]1CC[C@H](O)CC1 [Compound 165] | 401 nM
35 | O=c1c2cc(N3CCN(CC(F)(F)F)CC3)ccc2c2cnc(NCC3CC3)nc2n1[C@H]1CC[C@H](O)CC1 [Compound 168] | 289 nM
36 | O=c1c2cc(N3CCN(CC(F)F)CC3)ccc2c2cnc(NCC3CC3)nc2n1[C@H]1CC[C@H](O)CC1 [Compound 169] | 354 nM
37 | O=c1c2cc(CN3CCSCC3)ccc2c2cnc(NCC3CC3)nc2n1[C@H]1CC[C@H](O)CC1 [Compound 170] | 36.3 nM
38 | O=c1c2cc(CN3CCNCC3)ccc2c2cnc(NCC3CC3)nc2n1[C@H]1CC[C@H](O)CC1 [Compound 171] | 309 nM
39 | O=c1c2cc(N3CCNCC3)ccc2c2cnc(NCC3CC3)nc2n1[C@H]1CC[C@H](O)CC1 [Compound 174] | 170 nM
40 | C[C@@H]1CN(Cc2ccc3c(c2)c(=O)n([C@H]2CC[C@H](O)CC2)c2nc(NCC4CC4)ncc32)CCN1C [Compound 175] | 36.4 nM
